The results in this text go back to patent US6552080B1, “Fungicidal compounds having a fluorovinyl-or fluoropropenyl-oxyphenyloxime moiety and process for the preparation thereof” (Korea Research Institute of Chemical Technology, priority 1999, dated 2003).

Where two headings read alike, the source gives them in different places.

In one assay the test system is Puccinia recondita. Briefly: Fungicidal activity against Wheat Leaf Rust (WLR) disease. The assay is classed as in vivo.
The subject of another assay is Phytophthora infestans. The assay is classed as in vivo.
The test system of the next assay is Erysiphae graminis. Briefly: Fungicidal activity against Barley Powdery Mildew (BPM) disease. It counts as in vivo.
Another assay deals with Rhizoctonia solani AG-1. Nature of the assay: Fungicidal activity against Rice Sheath Blight (RSB) disease.
The next assay deals with Botrytis cinerae. Briefly: Fungicidal activity against Cucumber Gray Mold Rot (CGM) disease. The assay is classed as in vivo.
Assay [1] concerns Pyricularia oryzae Carvara KA301. It counts as in vivo.

Experimental for Rhizoctonia solani AG-1: To examine fungicidal activity of the compounds of the present invention, each of the compounds listed in Table 3 and 4 was dissolved in 10% acetone to a concentration of 250 ppm, and Tween-20 was added thereto to a concentration of 250 or 500 ppm. 50 ml of the resulting solution was sprayed on leaves of a host plant. The plant was kept at room temperature for 24 hours to let the solvent evaporate, and then, a pathogenic fungus was inoculated thereonto. The plant was held in a humidity chamber for 24 hours, transferred to an plant growth room kept at 20 to 27° C. and a relative humidity of 60 to 80% and kept to induce disease. […] This procedure was repeated twice for each test. 10% Acetone solution containing 250 ppm of Tween-20 was used as a control.
The fungicidal activity of the compound of the present invention is repressed by a control value (C.V.) calculated as; [formula]
Rhizoctonia solani AG-1 was cultured on a PDA medium (potato 200 g, dextrose 20 g, agar 20 g and distilled water 1 ? for 3 days and the agar disc(diameter 0.6 cm) was inoculated and cultured on sterilized wheat bran medium in a 1 L bottle at 26 to 28° C. for 7 days. A mycelial mass was ground using a homogenizer, inoculated uniformly on soil of a pot wherein a Nakdong rice plant having 2 or 3 leaves and an height of 5 cm grew, and kept in humidity polyvinyl chamber for 5 days to induce RSB. L.A. on a leaf sheath was measured to calculate an C.V.

Turning to `CCc1ccc(C(=C(F)Oc2cccc(C(C)=NOCc3ccccc3C(=NOC)C(=O)NC)c2)C(F)(F)F)cc1` [Compound 195], the “Fungicidal Activities WLR (C.V.)” value in the assay with Puccinia recondita (2 ppm) stood at 98%; with Puccinia recondita (50 ppm), 100%. The “Fungicidal Activities TLB (C.V.)” value was found to be 25% in the assay on Phytophthora infestans (2 ppm) and 50% in the assay with Phytophthora infestans (50 ppm). In addition, the results for the “Fungicidal Activities BPM (C.V.)” value in the assay on Erysiphae graminis (2 ppm) and in the assay with Erysiphae graminis (50 ppm) were 99% and 100%, respectively. The “Fungicidal Activities RSB (C.V.)” value in the assay with Rhizoctonia solani AG-1 (2 ppm) is on record as 25%; in the assay with Rhizoctonia solani AG-1 (50 ppm), 80%. In addition, the “Fungicidal Activities CGM (C.V.)” value with Botrytis cinerae (50 ppm) worked out at 82%. The “Fungicidal Activities RCV (C.V.)” value turned out to be 100% in assay [1] (2 ppm) and 96% in assay [1] (50 ppm).
Regarding `CNC(=O)C(=NOC)c1ccccc1CON=C(C)c1cccc(OC(F)=C(c2cccc(OC)c2)C(F)(F)F)c1` [Compound 197], the “Fungicidal Activities WLR (C.V.)” value with Puccinia recondita (2 ppm) was found to be 98%; in the assay with Puccinia recondita (50 ppm), 100%. The “Fungicidal Activities TLB (C.V.)” value with Phytophthora infestans (2 ppm) worked out at 0%; in the assay on Phytophthora infestans (50 ppm), 50%. In addition, the “Fungicidal Activities BPM (C.V.)” value in the assay on Erysiphae graminis (2 ppm) and with Erysiphae graminis (50 ppm) was 100% in each case. Further, the “Fungicidal Activities RSB (C.V.)” value in the assay with Rhizoctonia solani AG-1 (2 ppm) came to 35%; in the assay on Rhizoctonia solani AG-1 (50 ppm) it was 80%. In addition, in the assay on Botrytis cinerae (50 ppm), the “Fungicidal Activities CGM (C.V.)” value is reported as 85%. For the same compound, the “Fungicidal Activities RCV (C.V.)” value in assay [1] (2 ppm) and in assay [1] (50 ppm) was 100% in each case.
For the compound `CNC(=O)C(=NOC)c1ccccc1CON=C(C)c1cccc(OC(F)=C(c2ccc(OC)cc2)C(F)(F)F)c1` [Compound 198], the “Fungicidal Activities WLR (C.V.)” value in the assay with Puccinia recondita (2 ppm) turned out to be 53%; in the assay with Puccinia recondita (50 ppm), 100%. Besides, the “Fungicidal Activities TLB (C.V.)” value in the assay on Phytophthora infestans (50 ppm) was determined as 0%. Further, the “Fungicidal Activities BPM (C.V.)” value in the assay on Erysiphae graminis (2 ppm) is on record as 41%; in the assay on Erysiphae graminis (50 ppm) it was 100%. In the assay with Rhizoctonia solani AG-1 (50 ppm), the “Fungicidal Activities RSB (C.V.)” value was determined as 58%. Moreover, the “Fungicidal Activities CGM (C.V.)” value in the assay with Botrytis cinerae (50 ppm) is 16%. The “Fungicidal Activities RCV (C.V.)” value amounted to 95% in assay [1] (2 ppm) and 100% in assay [1] (50 ppm).
For the compound `CNC(=O)C(=NOC)c1ccccc1CON=C(C)c1cccc(OC(F)=C(c2ccc(F)cc2)C(F)(F)F)c1` [Compound 199], the “Fungicidal Activities WLR (C.V.)” value in the assay on Puccinia recondita (2 ppm) stood at 99%; with Puccinia recondita (50 ppm), 100%. For the same compound, the “Fungicidal Activities TLB (C.V.)” value with Phytophthora infestans (2 ppm) was 12%; in the assay on Phytophthora infestans (50 ppm) it was 60%. The “Fungicidal Activities BPM (C.V.)” value with Erysiphae graminis (2 ppm) and in the assay with Erysiphae graminis (50 ppm) was 100% each time. Besides, the entries for the “Fungicidal Activities RSB (C.V.)” value with Rhizoctonia solani AG-1 (2 ppm) and with Rhizoctonia solani AG-1 (50 ppm) were 35% and 100%, respectively. In addition, the “Fungicidal Activities CGM (C.V.)” value in the assay with Botrytis cinerae (50 ppm) was found to be 80%. The “Fungicidal Activities RCV (C.V.)” value in assay [1] (2 ppm) and in assay [1] (50 ppm) was 100% throughout.
As for `CNC(=O)C(=NOC)c1ccccc1CON=C(C)c1cccc(OC(F)=C(c2cccc(C(F)(F)F)c2)C(F)(F)F)c1` [Compound 200], the “Fungicidal Activities WLR (C.V.)” value in the assay with Puccinia recondita (2 ppm) is recorded as 93%; with Puccinia recondita (50 ppm), 100%. Moreover, the “Fungicidal Activities TLB (C.V.)” value was 12% in the assay on Phytophthora infestans (2 ppm) and 50% in the assay on Phytophthora infestans (50 ppm). Besides, the results for the “Fungicidal Activities BPM (C.V.)” value in the assay with Erysiphae graminis (2 ppm) and in the assay with Erysiphae graminis (50 ppm) were 99% and 100%, respectively. Moreover, the “Fungicidal Activities RSB (C.V.)” value came to 15% in the assay with Rhizoctonia solani AG-1 (2 ppm) and 85% in the assay with Rhizoctonia solani AG-1 (50 ppm). Further, in the assay on Botrytis cinerae (50 ppm), the “Fungicidal Activities CGM (C.V.)” value is given as 81%. For the same compound, the “Fungicidal Activities RCV (C.V.)” value in assay [1] (2 ppm) stood at 95%; in assay [1] (50 ppm) it was 96%.
As to `CNC(=O)C(=NOC)c1ccccc1CON=C(C)c1cccc(OC(F)=C(c2cccc(Cl)c2)C(F)(F)F)c1` [Compound 201], the “Fungicidal Activities WLR (C.V.)” value was found to be 97% with Puccinia recondita (2 ppm) and 100% in the assay with Puccinia recondita (50 ppm). Further, the figures for the “Fungicidal Activities TLB (C.V.)” value with Phytophthora infestans (2 ppm) and in the assay on Phytophthora infestans (50 ppm) were 25% and 50%, respectively. Also, the “Fungicidal Activities BPM (C.V.)” value in the assay with Erysiphae graminis (2 ppm) and in the assay with Erysiphae graminis (50 ppm) was 100% each time. For the same compound, the “Fungicidal Activities RSB (C.V.)” value in the assay with Rhizoctonia solani AG-1 (2 ppm) was determined as 20%; in the assay on Rhizoctonia solani AG-1 (50 ppm), 85%. The “Fungicidal Activities CGM (C.V.)” value in the assay with Botrytis cinerae (50 ppm) was 85%. Besides, the results for the “Fungicidal Activities RCV (C.V.)” value in assay [1] (2 ppm) and in assay [1] (50 ppm) were 98% and 97%, respectively.
Turning to `CON=C(C(=O)OC)c1ccccc1CON=C(c1cccc(OC(F)=C(c2ccccc2)C(F)(F)F)c1)C(F)(F)F` [Compound 221], the entries for the “Fungicidal Activities WLR (C.V.)” value in the assay with Puccinia recondita (10 ppm) and in the assay with Puccinia recondita (50 ppm) were 91% and 100%, respectively. Besides, the “Fungicidal Activities TLB (C.V.)” value in the assay with Phytophthora infestans (50 ppm) came to 0%. Also, the “Fungicidal Activities BPM (C.V.)” value worked out at 96% with Erysiphae graminis (10 ppm) and 100% in the assay on Erysiphae graminis (50 ppm). Further, in the assay on Rhizoctonia solani AG-1 (50 ppm), the “Fungicidal Activities RSB (C.V.)” value came out at 30%. In addition, in the assay on Botrytis cinerae (50 ppm), the “Fungicidal Activities CGM (C.V.)” value came to 0%. Besides, the “Fungicidal Activities RCV (C.V.)” value in assay [1] (50 ppm) is given as 41%.
On to `OC(c1ccc(Cl)cc1)(c1cncnc1)c1ccccc1Cl` (stereo not drawn) [FENARIMOL, reference compound], for which the “Fungicidal Activities WLR (C.V.)” value worked out at 15% in the assay with Puccinia recondita (0.08 ppm), 15% with Puccinia recondita (0.40 ppm), 80% in the assay on Puccinia recondita (2 ppm) and 100% in the assay on Puccinia recondita (10 ppm). Also, the “Fungicidal Activities TLB (C.V.)” value in the assay with Phytophthora infestans (0.08 ppm) stood at 0%; in the assay on Phytophthora infestans (0.40 ppm), 60%; in the assay with Phytophthora infestans (2 ppm), 75%; in the assay with Phytophthora infestans (10 ppm), 80%. Also, the “Fungicidal Activities BPM (C.V.)” value is 50% with Erysiphae graminis (0.08 ppm), 95% in the assay with Erysiphae graminis (0.40 ppm), 100% in the assay on Erysiphae graminis (2 ppm) and 100% in the assay with Erysiphae graminis (10 ppm). Also, the “Fungicidal Activities RSB (C.V.)” value in the assay on Rhizoctonia solani AG-1 (0.08 ppm) was found to be 14%; with Rhizoctonia solani AG-1 (0.40 ppm), 30%; in the assay on Rhizoctonia solani AG-1 (2 ppm) it was 40%; with Rhizoctonia solani AG-1 (10 ppm) it was 85%. Moreover, the “Fungicidal Activities CGM (C.V.)” value came to 0% in the assay with Botrytis cinerae (0.08 ppm), 7% with Botrytis cinerae (0.40 ppm), 7% in the assay with Botrytis cinerae (2 ppm) and 7% with Botrytis cinerae (10 ppm). Besides, the “Fungicidal Activities RCV (C.V.)” value in assay [1] (0.08 ppm), in assay [1] (0.40 ppm), in assay [1] (2 ppm) and in assay [1] (10 ppm) was 0% in each case.
